Results as given in patent US20220079993A1, “NON-NATURALLY OCCURRING THERMOGENIC ADIPOCYTES, METHODS OF MAKING, AND METHODS OF USE THEREOF” (University of Georgia Research Foundation, Inc., priority 2019, published 2022).
Structures can show the parent of a compound that is named as a salt. Where two headings read alike, the source gives them in different places.

Columns and labels:
Type in all cases: cell-based, human
[1] = test system: beige adipocytes; test: High-throughput primary screen, lipolysis assay (glycerol release), 384-well; details: 20 μM; for % Control (relative levels of glycerol release): 24 hours of drug treatment, vs untreated beige adipocytes; for Outcome in the primary screen (glycerol release), in words: 24 hours, cut-offs at 2-fold
Description: ADSCs were seeded at 5000 cell/cm^2 in 12-well plates, grown for 5 days and then induced to differentiate into GC for 20 days. […] Cells were treated with forskolin (20 μM) for indicated time periods and supernatant samples were collected. Lipolysis assay was performed with free glycerol reagent (Sigma, F6428-40ML), according to manufacturer instructions.
ADSCs were plated in 384-well plates at a density of 5000 cell/cm2 and grown to confluency over ˜4 days. Cells were then differentiated to beige adipocytes using B-8 medium for 21 days. All cell culture and incubations in the 384-well format were done at 37° C. and 5% CO2. […] The use of FDA-approved drugs may allow for re-purposing for therapeutic use.
(§1) Lipolysis assays were performed after 24 hours of drug treatment by measuring free glycerol released in the 384-well format, using the procedure described above. Absorbance for each compound was normalized to untreated control samples for each plate and calculated as a percent of the control. Cut-offs for “activating” and “inhibiting” compounds were set at 2-fold. Validation assays were performed for select compounds at a range of concentration doses.

[2] = test system: UCP1; test: Secondary screen, UCP1 transcript levels by qRT-PCR; details: secondary screen of primary hits
From the text: FIG. 8A is a scheme used for high-throughput screening (HTS). FIG. 8B is a scatter-plot of glycerol release for each compound assayed (n=3889) in an HTS screen. Data are shown as the percentage of glycerol released compared to untreated beige adipocytes (% of control). FIG. 8C is a computational analysis of preliminary hits identified in the HTS using BiNChE. FIG. 8D is a plot showing the results of a secondary hit validation of primary compounds performed by evaluating levels of UCP1 transcript by qRT-PCR. Unstimulated beige cells, selected adrenergic agonists, and potential new non-adrenergic beige fat activators identified in the primary screen are shown. Transcript levels were normalized to UCP1 levels in ADSCs, n=3 for each technical 20 replicate. *P<0.0.05, **P<0.01, ***P<0.005. FIGS. 8E and 8F are bar graphs showing secondary screening of known thermogenic activators. Transcript levels of UCP1 were assayed in unstimulated ADSCs and ADSC-derived beige adipocytes and following treatment with forskolin (FSK, 20 μM), isoproterenol (1, 10 μM) (8E) and Mirabegron (1, 10 and 25 μM) (8F). Transcript levels were determined by qRT-PCR. n=3 for each independent replicate. Data are mean+/−standard deviation. *P<0.0.05, **P<0.01.
Cells were washed with DPBS, lysed directly on the plate and used for RNA isolation with the E.Z.N.A Total RNA Kit (Omega, R6834-02) according to manufacturer instructions. RNA quantitation was performed with the Biotek Synergy 2 plate reader and cDNA was synthesized using 1 ug of RNA with the iScript cDNA Synthesis Kit (Bio-Rad, 1708841). The qRT-PCR was performed on a ViiA7 Real-Time PCR System (ThermoFisher) using a TaqMan Universal PCR Master Mix (ThermoFisher, 4324020) according to manufacturer instructions with the following TaqMan primer/probe sets (UCP1, Hs01084772_m1), DIO2, Hs00988260_ml, 18S rRNA, Hs03928985_g1). Each assay was performed in triplicate and normalized to 18S rRNA and graphed as mean+/−standard deviation.
To determine if hits identified in the first-round screen activated the thermogenic program, UCP1 transcript levels were used as a readout. This secondary screen incorporated adrenergic agonists, such as Mirabegron, isoproterenol and phenylephrine, and eighteen additional compounds with no reported function in thermogenic regulation (FIG. 8D, 8E, 8F). 18/25 (72%) of the lipolysis-activating compounds identified in the primary screen also activate the thermogenic program through UCP1. Twelve of these compounds have no reported adrenergic agonist activity and could potentially operate through different signaling mechanisms (FIG. 8D and Table 9).

[3] = test system: beige adipocytes; test: Lipolysis validation assays of primary hits at three concentrations; parameters: % of Control (1) / % of Control (2) / % of Control (3) / % of Control (4): unit of the concentration uncertain; details: for activity at 2.2 µM: Conc. 2.2 µM; for activity at 6.7 µM: Conc. 6.7 µM; for activity at 20 µM: Conc. 20 µM; for activity at 2200 µM: Conc. 2.2 mM
Description: ADSCs were seeded at 5000 cell/cm^2 in 12-well plates, grown for 5 days and then induced to differentiate into GC for 20 days. Prior to the assay, cells were washed in DPBS twice and then incubated with DMEM with 2% fatty-acid free BSA (Santa Crus, sc-500949) and Triascin C (5 μM). Cells were treated with forskolin (20 μM) for indicated time periods and supernatant samples were collected. Lipolysis assay was performed with free glycerol reagent (Sigma, F6428-40ML), according to manufacturer instructions.
as §1
Next, lipolysis assays were performed for all 111 compounds identified in the primary screen at three different concentrations, of which twenty-four were selected for further analysis based on their newness and/or reproducibility.

[4] = Homo sapiens, Adipocyte, 24 h, read-out: % of Control (2)
[5] = Homo sapiens, Adipocyte, 24 h, read-out: % of Control (4)
[6] = Homo sapiens, Adipocyte, 24 h, read-out: % of Control (1)
[7] = Homo sapiens, Adipocyte, 24 h, read-out: % of Control (3)

SMILES | % Control (relative levels of glycerol release) [1] [% control] | activity at 2.2 µM [3, 4] [%] | activity at 2.2 µM [3, 5] [%] | activity at 6.7 µM [3, 6] [%] | activity at 6.7 µM [3, 4] [%] | activity at 6.7 µM [3, 7] [%] | activity at 6.7 µM [3, 5] [%] | activity at 20 µM [3, 6] [%] | activity at 20 µM [3, 4] [%] | activity at 20 µM [3, 7] [%] | activity at 20 µM [3, 5] [%] | activity at 2200 µM [3, 6] [%] | activity at 2200 µM [3, 7] [%] | other results
CC(C)NCC(O)c1ccc(O)c(O)c1.Cl (racemic) [(±)-Isoproterenol hydrochloride] | 389.02 |  |  |  |  |  |  |  |  |  |  |  |  | 
O=C1CN2Cc3c(ccc(Cl)c3Cl)N=C2N1 [Anagrelide HCl] |  | 146 | 144 | 195 | 268 | 191 | 156 | 196 | 183 | 212 | 161 | 125 | 124 | Activation of the thermogenic program (UCP1 transcript), in words [2]: efficacy in beige cell activation
CC(C)(C)NCC(O)COc1cccc2c1CCC(=O)N2.Cl (stereo not shown) [Carteolol HLC] | 32.31 |  |  |  |  |  |  |  |  |  |  |  |  | 
CC(C)NCC(O)c1ccc(O)c(O)c1 (stereo not shown) [Isoproterenol HCl] |  | 272 | 251 | 284 | 294 | 241 | 236 | 289 | 268 | 252 | 237 | 282 | 236 | Outcome in the primary screen (glycerol release), in words [1]: identified as primary hits
Cc1ccccc1N1CCN(S(=O)(=O)C[C@]23CC[C@H](C[C@@H]2NC(=O)[C@@H](N)CCS(C)(=O)=O)C3(C)C)CC1 [L-368, 899] |  |  |  |  |  |  |  |  |  |  |  |  |  | Activation of the thermogenic program (UCP1 transcript), in words [2]: activators in both rounds of screening; % of Control (1) ([3]; Conc. 2.2 (unit uncertain)): 196.9 % of Control; % of Control (2) ([3]; Conc. 2.2 (unit uncertain)): 128 % of Control; % of Control (3) ([3]; Conc. 2.2 (unit uncertain)): 118.57 % of Control; % of Control (4) ([3]; Conc. 2.2 (unit uncertain)): 91.72 % of Control; % of Control (1) ([3]; Conc. 6.7 (unit uncertain)): 185.48 % of Control; % of Control (2) ([3]; Conc. 6.7 (unit uncertain)): 151.88 % of Control; % of Control (3) ([3]; Conc. 6.7 (unit uncertain)): 130.11 % of Control; % of Control (4) ([3]; Conc. 6.7 (unit uncertain)): 148.51 % of Control; % of Control (1) ([3]; Conc. 20 (unit uncertain)): 143.81 % of Control; % of Control (2) ([3]; Conc. 20 (unit uncertain)): 179.29 % of Control; % of Control (3) ([3]; Conc. 20 (unit uncertain)): 192.97 % of Control; % of Control (4) ([3]; Conc. 20 (unit uncertain)): 166.21 % of Control
Cc1[nH]c(=O)c(C#N)cc1-c1ccncc1 [Milrinone] |  | 117 | 170 | 236 | 154 | 116 | 142 | 168 | 205 | 171 | 185 | 99 | 126 | 
Nc1nc(CC(=O)Nc2ccc(CCNC[C@H](O)c3ccccc3)cc2)cs1 [Mirabegron] | 211.65 | 198 | 131 |  | 162 | 168 | 192 | 200 | 211 | 65 | 201 | 142 | 172 | Outcome in the primary screen (glycerol release), in words [1]: efficacy in the HTS; activity at 6700 µM ([3]; Homo sapiens, Adipocyte, 24 h, Conc. 6.7 mM, read-out: % of Control (1)): 203%
